We go through 14 compounds from US20230203098A1, “HUMAN TRANSFERRIN RECEPTOR BINDING PEPTIDE” (priority 2020, published 2023).

For this test, the target named is transferrin receptor (hTfR) (Homo sapiens, UniProt P02786). Kind of test: Intermolecular interaction evaluation test between transferrin receptor (hTfR) and peptide by surface plasmon resonance (SPR). It is filed as binding. In a few lines: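 Receptor was Ni-captured and EDC/NHS-fixed on an NTA chip; running buffer HEPES pH 8.0 with NaCl, Tween 20, BSA and 1.0% DMSO.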
Sequence of transferrin receptor (hTfR) (P02786 whole entry): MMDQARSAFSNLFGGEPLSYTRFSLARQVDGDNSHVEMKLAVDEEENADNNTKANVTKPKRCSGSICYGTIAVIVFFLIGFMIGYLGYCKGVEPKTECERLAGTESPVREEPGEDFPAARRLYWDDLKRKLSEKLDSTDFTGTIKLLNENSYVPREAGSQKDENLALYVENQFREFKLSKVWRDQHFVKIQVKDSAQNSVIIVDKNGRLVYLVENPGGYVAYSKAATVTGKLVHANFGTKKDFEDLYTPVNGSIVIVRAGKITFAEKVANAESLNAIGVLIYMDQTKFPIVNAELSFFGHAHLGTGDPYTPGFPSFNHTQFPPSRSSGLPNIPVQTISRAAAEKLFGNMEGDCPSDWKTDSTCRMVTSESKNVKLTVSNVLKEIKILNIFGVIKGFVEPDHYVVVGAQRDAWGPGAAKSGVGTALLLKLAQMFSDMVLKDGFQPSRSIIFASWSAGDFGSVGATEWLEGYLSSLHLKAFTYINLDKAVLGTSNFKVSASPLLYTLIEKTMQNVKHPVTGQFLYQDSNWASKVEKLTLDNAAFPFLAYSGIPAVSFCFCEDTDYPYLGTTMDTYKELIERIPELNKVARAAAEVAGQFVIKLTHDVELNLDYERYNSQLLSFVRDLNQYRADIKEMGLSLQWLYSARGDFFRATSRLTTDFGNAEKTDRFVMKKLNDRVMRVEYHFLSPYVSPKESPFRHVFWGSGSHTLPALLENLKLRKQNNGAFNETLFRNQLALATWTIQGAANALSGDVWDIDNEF
For orientation: SPR reads the build-up and loss of mass on a sensor chip optically.

[1] abbreviates: hTfR binding by SPR, hTfR No. 894 variant peptides, linker-added peptides and payload conjugates (Table 2), read-out: KD value obtained from the SPR measurement.
The mark [2] stands for this setting: surface plasmon resonance, peptide vs hTfR, read-out: KD value, hTfR binding by SPR (class symbol).
The mark [3] stands for this setting: binding to hTfR by SPR, Table 2 peptides, read-out: KD value (SPR) class.
The mark [4] stands for this setting: SPR, linker and payload (FITC, VivoTag) conjugates, read-out: KD.
The mark [5] stands for this setting: surface plasmon resonance, hTfR, read-out: KD value for hTfR by SPR (class symbol).

Like-named read-outs stand apart in the source and are kept apart here. Where a SMILES comes first, the peptide text is derived from it. Bridges are numbered along the chain shown (N, C = ends). [ ]: non-standard residue; d: D form. The star is where a group is joined. X2 = O=C(O)c1cc(C(=O)*)ccc1-c1c2ccc(=O)cc-2oc2cc(O)ccc12; PEG12 = NCCOCCOCCOCCOCCOCCOCCOCCOCCOCCOCCOCCOCCC(=O)O; NMePhe(3-Cl) = CN[C@@H](Cc1cccc(Cl)c1)C(=O)O; NMeW = CN[C@@H](Cc1c[nH]c2ccccc12)C(=O)O; Lys(N3) = [N-]=[N+]=NCCCC[C@H](N)C(=O)O; NMeY = CN[C@@H](Cc1ccc(O)cc1)C(=O)O; PEG4 = NCCOCCOCCOCCOCCC(=O)O; Nle = CCCC[C@H](N)C(=O)O Some results are limits rather than exact numbers.

For `CC[C@H](C)[C@@H]1NC(=O)[C@H](Cc2ccc(O)cc2)NC(=O)[C@H](Cc2ccc(O)cc2)NC(=O)[C@H](CC(N)=O)NC(=O)[C@H](Cc2c[nH]c3ccccc23)NC(=O)[C@H](C(C)C)NC(=O)[C@H](Cc2ccccc2)N(C)C(=O)[C@H](C(C)C)NC(=O)[C@H](C)NC(=O)CSC[C@@H](C(=O)NCC(=O)NCC(=O)N[C@@H](CCC(=O)O)C(=O)N[C@@H](CO)C(=O)N[C@@H](CCC(=O)O)C(=O)N[C@@H](CO)C(=O)N[C@@H](CCCCNC(=O)C2CCC(CN3C(=O)C=CC3=O)CC2)C(N)=O)NC(=O)[C@H](Cc2ccc(O)cc2)N(C)C(=O)[C@H](Cc2ccc(O)cc2)NC(=O)[C@H](CCCNC(=N)N)NC(=O)[C@H](CCCNC(=N)N)NC(=O)[C@H]([C@@H](C)CC)NC1=O` (some centres unmarked) [compound 192], the Kd (in general, the concentration at which binding is half-saturated) under setting [1] was in the range of 1 to 100 nM.
Same read-out and setting: for `CC[C@H](C)[C@@H]1NC(=O)[C@H](Cc2ccc(O)cc2)NC(=O)[C@H](Cc2ccc(O)cc2)NC(=O)[C@H](CC(N)=O)NC(=O)[C@H](Cc2c[nH]c3ccccc23)NC(=O)[C@H](C(C)C)NC(=O)[C@H](Cc2ccccc2)N(C)C(=O)[C@H](C(C)C)NC(=O)[C@H](C)NC(=O)CSC[C@@H](C(=O)NCC(=O)NCC(=O)N[C@@H](CCCCNC(=O)C2CCC(CN3C(=O)C=CC3=O)CC2)C(N)=O)NC(=O)[C@H](Cc2ccc(O)cc2)N(C)C(=O)[C@H](Cc2ccc(O)cc2)NC(=O)[C@H](CCCNC(=N)N)NC(=O)[C@H](CCCNC(=N)N)NC(=O)[C@H]([C@@H](C)CC)NC1=O` (some centres unmarked) [compound 195] the value was 1 to 100 nM; for `CC[C@H](C)[C@@H]1NC(=O)[C@H](Cc2ccc(O)cc2)NC(=O)[C@H](Cc2ccc(O)cc2)NC(=O)[C@H](CC(N)=O)NC(=O)[C@H](Cc2c[nH]c3ccccc23)NC(=O)[C@H](C(C)C)NC(=O)[C@H](Cc2ccccc2)N(C)C(=O)[C@H](C(C)C)NC(=O)[C@H](C)NC(=O)CSC[C@@H](C(=O)NCCOCCOCCOCCOCCC(=O)NCCOCCOCCOCCOCCC(=O)N[C@@H](CCCCNC(=O)C2CCC(CN3C(=O)C=CC3=O)CC2)C(N)=O)NC(=O)[C@H](Cc2ccc(O)cc2)N(C)C(=O)[C@H](Cc2ccc(O)cc2)NC(=O)[C@H](CCCNC(=N)N)NC(=O)[C@H](CCCNC(=N)N)NC(=O)[C@H]([C@@H](C)CC)NC1=O` (some centres unmarked) [compound 181], below 1 nM.
With `CCCC[C@@H]1NC(=O)[C@H]([C@@H](C)CC)NC(=O)[C@H](Cc2ccc(OC)cc2)NC(=O)[C@H](Cc2ccc(O)cc2)NC(=O)[C@H](CC(N)=O)NC(=O)[C@H](Cc2c[nH]c3ccccc23)N(C)C(=O)[C@H](C(C)C)NC(=O)[C@H](Cc2cccc(Cl)c2)N(C)C(=O)[C@H](C(C)C)NC(=O)[C@H](C)NC(=O)CSC[C@@H](C(=O)NCCOCCOCCOCCOCCC(N)=O)NC(=O)[C@H](Cc2ccc(O)cc2)N(C)C(=O)[C@H](Cc2ccccc2)NC(=O)[C@@H](CCCNC(=N)N)NC(=O)[C@H](CCCNC(=N)N)NC1=O` [compound 334] ({CH2CO}-AV[NMePhe(3-Cl)]V[NMeW]NYY(Me)I[Nle]R[dR]F[NMeY]C[PEG4]-NH2; thioether N-15), the Kd under setting [2] was 1 to 100 nM.
`CC[C@H](C)[C@@H]1NC(=O)[C@H](Cc2ccc(O)cc2)NC(=O)[C@H](Cc2ccc(O)cc2)NC(=O)[C@H](CC(N)=O)NC(=O)[C@H](Cc2c[nH]c3ccccc23)NC(=O)[C@H](C(C)C)NC(=O)[C@H](Cc2ccccc2)NC(=O)[C@H](C(C)C)NC(=O)[C@H](C)NC(=O)CSC[C@@H](C(N)=O)NC(=O)[C@H](Cc2ccc(O)cc2)N(C)C(=O)[C@H](Cc2ccc(O)cc2)NC(=O)[C@H](C)NC(=O)[C@H](CCC(=O)O)NC(=O)[C@H]([C@@H](C)CC)NC1=O` [compound 252]: the Kd under setting [3] was 100 to 1000 nM.
Regarding `CC[C@H](C)[C@@H]1NC(=O)[C@H](Cc2ccc(O)cc2)NC(=O)[C@H](Cc2ccc(O)cc2)NC(=O)[C@H](CC(N)=O)NC(=O)[C@H](Cc2c[nH]c3ccccc23)NC(=O)[C@H](C(C)C)NC(=O)[C@H](Cc2ccccc2)NC(=O)[C@H](C(C)C)NC(=O)[C@H](C)NC(=O)CSC[C@@H](C(N)=O)NC(=O)[C@H](Cc2ccc(O)cc2)N(C)C(=O)[C@H](Cc2ccc(O)cc2)NC(=O)[C@H](CCCNC(=N)N)NC(=O)[C@H](CCC(=O)O)NC(=O)[C@H]([C@@H](C)CC)NC1=O` [compound 251], the Kd under setting [3] lay within 1 to 100 nM.
On to `CC[C@H](C)[C@@H]1NC(=O)[C@H](Cc2ccc(OC)cc2)NC(=O)[C@H](Cc2ccc(O)cc2)NC(=O)[C@H](CC(N)=O)NC(=O)[C@H](Cc2c[nH]c3ccccc23)N(C)C(=O)[C@H](C(C)C)NC(=O)[C@H](Cc2cccc(Cl)c2)N(C)C(=O)[C@H](C(C)C)NC(=O)[C@H](C)NC(=O)CSC[C@@H](C(N)=O)NC(=O)[C@H](Cc2ccc(O)cc2)N(C)C(=O)[C@H](Cc2ccccc2)NC(=O)[C@@H](CCCNC(=N)N)NC(=O)[C@H](CCCNC(=N)N)NC(=O)[C@H](CCC(=O)N[C@H](CCC(=O)O)C(=O)O)NC1=O` [compound 347] ({CH2CO}-AV[NMePhe(3-Cl)]V[NMeW]NYY(Me)IE(dE)R[dR]F[NMeY]C-NH2; thioether N-15), for which, under setting [2], the Kd lay in the range of 1 to 100 nM.
On to `CC[C@H](C)[C@@H]1NC(=O)[C@H](Cc2ccc(OC)cc2)NC(=O)[C@H](Cc2ccc(O)cc2)NC(=O)[C@H](CC(N)=O)NC(=O)[C@H](Cc2c[nH]c3ccccc23)N(C)C(=O)[C@H](C(C)C)NC(=O)[C@H](Cc2cccc(Cl)c2)N(C)C(=O)[C@H](CCC(=O)O)NC(=O)[C@H](C)NC(=O)CSC[C@@H](C(=O)NCC(=O)N[C@@H](CCCCN=[N+]=[N-])C(N)=O)NC(=O)[C@H](Cc2ccc(O)cc2)N(C)C(=O)[C@H](Cc2ccccc2)NC(=O)[C@H](CCC(=O)O)NC(=O)[C@H](CCCNC(=N)N)NC(=O)[C@H]([C@@H](C)CC)NC1=O` [compound 232] ({CH2CO}-AE[NMePhe(3-Cl)]V[NMeW]NYY(Me)IIREF[NMeY]CG[Lys(N3)]-NH2; thioether N-15), for which the Kd under setting [3] was 1 to 100 nM.
As to `CC[C@H](C)[C@@H]1NC(=O)[C@H](Cc2ccc(O)cc2)NC(=O)[C@H](Cc2ccc(O)cc2)NC(=O)[C@H](CC(N)=O)NC(=O)[C@H](Cc2c[nH]c3ccccc23)NC(=O)[C@H](C(C)C)NC(=O)[C@H](Cc2ccccc2)NC(=O)[C@H](C(C)C)NC(=O)[C@H](C)N(C)C(=O)CSC[C@@H](C(=O)NCCOCCOCCOCCOCCC(=O)N[C@@H](CNC(=O)c2ccc(-c3c4ccc(=O)cc-4oc4cc(O)ccc34)c(C(=O)O)c2)C(N)=O)NC(=O)[C@H](Cc2ccc(O)cc2)N(C)C(=O)[C@H](Cc2ccc(O)cc2)NC(=O)[C@H](CCCNC(=N)N)NC(=O)[C@H](CCCNC(=N)N)NC(=O)[C@H]([C@@H](C)CC)NC1=O` [compound 161], the Kd under setting [4] lay in the range of 1 to 100 nM.
On to `CC[C@H](C)[C@@H]1NC(=O)[C@H](Cc2ccc(O)cc2)NC(=O)[C@H](Cc2ccc(O)cc2)NC(=O)[C@H](CC(N)=O)NC(=O)[C@H](Cc2c[nH]c3ccccc23)NC(=O)[C@H](C(C)C)NC(=O)[C@H](Cc2ccccc2)N(C)C(=O)[C@H](C(C)C)NC(=O)[C@H](C)NC(=O)CSC[C@@H](C(=O)NCC(=O)N[C@@H](CCCCN=[N+]=[N-])C(N)=O)NC(=O)[C@H](Cc2ccc(O)cc2)N(C)C(=O)[C@H](Cc2ccc(O)cc2)NC(=O)[C@H](CCCNC(=N)N)NC(=O)[C@H](CCCNC(=N)N)NC(=O)[C@H]([C@@H](C)CC)NC1=O` [compound 297], for which the Kd under setting [2] is 1 to 100 nM.
Regarding `CC[C@H](C)[C@@H]1NC(=O)[C@H](Cc2ccc(OC)cc2)NC(=O)[C@H](Cc2ccc(O)cc2)NC(=O)[C@H](CC(N)=O)NC(=O)[C@H](Cc2c[nH]c3ccccc23)N(C)C(=O)[C@H](C(C)C)NC(=O)[C@H](Cc2cccc(Cl)c2)N(C)C(=O)[C@H](C(C)C)NC(=O)[C@H](C)NC(=O)CSC[C@@H](C(N)=O)NC(=O)[C@H](Cc2ccc(O)cc2)N(C)C(=O)[C@H](Cc2ccccc2)NC(=O)[C@@H](C)NC(=O)[C@H](CCCNC(=N)N)N(C)C(=O)[C@H]([C@@H](C)CC)NC1=O` [compound 383], under setting [5], the Kd fell in the range of 100 to 1000 nM.
On the same count and under the same terms, for `CC[C@H](C)[C@@H]1NC(=O)[C@H](Cc2ccc(OC)cc2)NC(=O)[C@H](Cc2ccc(O)cc2)NC(=O)[C@H](CC(N)=O)NC(=O)[C@H](Cc2c[nH]c3ccccc23)N(C)C(=O)[C@H](C(C)C)NC(=O)[C@H](Cc2cccc(Cl)c2)N(C)C(=O)[C@H](C(C)C)NC(=O)[C@H](C)NC(=O)CSC[C@@H](C(N)=O)NC(=O)[C@H](Cc2ccc(O)cc2)N(C)C(=O)[C@H](Cc2ccccc2)NC(=O)[C@H](CCC(=O)N[C@H](CCC(=O)O)C(=O)O)NC(=O)[C@H](CCCNC(=N)N)NC(=O)[C@H]([C@@H](C)CC)NC1=O` [compound 385] the value was 1 to 100 nM.
Regarding `CC[C@H](C)[C@@H]1NC(=O)[C@H](Cc2ccc(O)cc2)NC(=O)[C@H](Cc2ccc(O)cc2)NC(=O)[C@H](CC(N)=O)NC(=O)[C@H](Cc2c[nH]c3ccccc23)NC(=O)[C@H](C(C)C)NC(=O)[C@H](Cc2ccccc2)NC(=O)[C@H](C(C)C)NC(=O)[C@H](C)NC(=O)CSC[C@@H](C(=O)NCCOCCOCCOCCOCCOCCOCCOCCOCCOCCOCCOCCOCCC(=O)N[C@@H](CCCCNC(=O)c2ccc(-c3c4ccc(=O)cc-4oc4cc(O)ccc34)c(C(=O)O)c2)C(N)=O)NC(=O)[C@H](CC(N)=O)NC(=O)[C@@H]2CCCN2C(=O)[C@H](C(C)C)NC(=O)[C@H](CC(N)=O)NC(=O)[C@H](CCCNC(=N)N)NC(=O)CNC(=O)[C@H](C(C)C)NC1=O` [compound 152] ({CH2CO}-AVFVWNYYIVGRNVPNC[PEG12]K(X2)-NH2; thioether N-17), the Kd under setting [4] was below 1 nM.
In the case of `CC[C@H](C)[C@@H]1NC(=O)[C@H](Cc2ccc(O)cc2)NC(=O)[C@H](Cc2ccc(O)cc2)NC(=O)[C@H](CC(N)=O)NC(=O)[C@H](Cc2c[nH]c3ccccc23)NC(=O)[C@H](C(C)C)NC(=O)[C@H](Cc2ccccc2)N(C)C(=O)[C@H](C(C)C)NC(=O)[C@H](C)NC(=O)CSC[C@@H](C(=O)NCCOCCOCCOCCOCCOCCOCCOCCOCCOCCOCCOCCOCCC(N)=O)NC(=O)[C@H](CCC(=O)O)NC(=O)[C@H](Cc2ccc(O)cc2)NC(=O)[C@H](CCCNC(=N)N)NC(=O)[C@H](CCCNC(=N)N)NC(=O)[C@H]([C@@H](C)CC)NC1=O` [compound 124], the Kd (SPR, hTfR No. 894 variants with PEG12c linker (Table 2), read-out: KD) fell in the range of 100 to 1000 nM.
